Source: US20240197739A1 (Sanofi, priority 2021, published 2024)
Read-outs that look alike come from different tables or passages of the source.

Tested on: subcutaneous MCF7-Y537S human breast cancer cell line xenograft
Details: for Tumor volume changes from baseline: Median / Regressions Complete / Regressions Partial / Median % of regressions on day 22 / Unscheduled death (Day of death): PO; for Tumor volume changes from baseline: Median: n = 7; for Anti-tumor effect on tumor growth (statistical significance versus control): two-way ANOVA, contrast analysis; for Regressions Complete: animals with complete regression / group of 7; for Regressions Complete / Regressions Partial / Unscheduled death (Day of death): 22 days; for Regressions Partial: animals with partial regression / group of 7; for ΔT/ΔC in % at day 22: ratio of median tumor volume changes from baseline, treated vs control; for ΔT/ΔC in % at day 22 / Median % of regressions on day 22 / Biological Interpretation: day 22; for Biological Interpretation: based on ΔT/ΔC and statistical analysis; for Unscheduled death (Day of death): deaths / group of 7
Procedure: Anti-tumor efficacy was evaluated by tumor volume measurement.
Female BALB/c nude mice were obtained from Shanghai Sino-British SIPPR/BK Laboratory Animal Co., LTD (Shanghai, CHINA). Animals were allowed to acclimate for at least four days before the study enrollment. Mice were 6 to 8 weeks old and weighed between 18 and 24 grams at the beginning of the treatments. These animals were housed under conditions outlined in the guidelines approved by the Institutional Animal Care and Use Committee (IACUC) of WuXi AppTec following the guidance of the Association for Assessment and Accreditation of Laboratory Animal Care (AAALAC).
Parental MCF7 cells were obtained from the American Type Culture Collection (ATCC® HTB-22™). MCF7-Y537S (ESR1) cell line was MCF7 cells expressing the ER. Y537S variant that was generated by Sanofi Biology Discovery Group. Y537S mutation was introduced in ESR1 construct (GenBank NM_000125.3) by site directed mutagenesis (Toy W. et al., Cancer Discovery, 2017, 7, 277-287). The construct was transfected in MCF7 cells, which were selected for their growth in absence of estradiol. MCF-Y537S is an ESR1 mutation that confers estrogen-independent activity to ERα(Estrogen Receptor alpha) and contributes to endocrine resistant disease (Robinson D.R. et al., Nat Genet., 2013, 45 (12), 1446-1451). The cells were grown in Eagle's Minimum Essential Medium (EMEM) supplemented with 10% fetal bovine serum (FBS), human Insulin, in 5% CO2 at 37° C. The cells were harvested in 0.25% Trypsin EDTA and washed by Phosphate Buffered Saline (PBS) and re-suspended in PBS with 75% Matrigel. The cells (20×10^6 cells/per mouse) were subcutaneously (SC) implanted into the right flank of female nude mice.
When the MCF7-Y537S tumors were established, the tumors were reserved as tumor stocks for fragment implantation. The tumors were serially propagated through fragment tissue transplantation subcutaneously. The fragment tumor tissues were subcutaneously implanted into the right flank of female nude mice. Twenty-eight mice were assigned in this experiment.
The animals required for experiment (plus extra) were pooled and implanted with MCF7-Y537S tumor fragment tissues. […] Animal body weight was assessed daily.
The dosages are expressed in mg/kg and based on daily body weight per animal. Vehicle treated animals were used as controls. Mice were checked daily for adverse clinical reactions. Individual mice were weighed daily until the end of the experiment. Mice would be euthanized when morbid or weight loss ≥20% was observed. Tumors were measured with a caliper twice weekly until final sacrifice. When a tumor size reached approximately 2000 mm^3 or when there are animal health issues (40% area of a tumor ulcerated), animals were euthanized, and date of death recorded. Solid tumor volumes were estimated from two-dimensional tumor measurements and calculated according to the following equation: […]
A dosage producing either 15% body weight loss during 3 consecutive days for an individual mouse, 20% body weight loss during 1 day, or 10% or more drug related deaths, was considered an excessively toxic dosage, unless under certain circumstances bodyweight loss or animal death can be considered non-drug related. […] Animal body weight included the tumor weight.
The primary efficacy end points include tumor volume changes from baseline summarized by the ratio of medians of tumor volume changes from baseline between the treated and control groups (ΔT/ΔC). Changes in tumor volume for each treated (T) and control (C) group were calculated for each animal on each day by subtracting the tumor volume on the day of first treatment (staging day) from the tumor volume on the specified observation day.

[1] = Day 4, amcenestrant 20 mg/kg BID, ribociclib 100 mg/kg QD
[2] = Day 8, amcenestrant 20 mg/kg BID, ribociclib 100 mg/kg QD
[3] = Day 11, amcenestrant 20 mg/kg BID, ribociclib 100 mg/kg QD
[4] = Day 15, amcenestrant 20 mg/kg BID, ribociclib 100 mg/kg QD
[5] = Day 22, amcenestrant 20 mg/kg BID, ribociclib 100 mg/kg QD
[6] = amcenestrant 20 mg/kg BID, ribociclib 100 mg/kg QD, PO for 22 days
[7] = amcenestrant 20 mg/kg BID, ribociclib 100 mg/kg QD
[8] = PO for 22 days, amcenestrant 20 mg/kg BID, ribociclib 100 mg/kg QD

SMILES	Tumor volume changes from baseline: Median [1] [mm^3]	Tumor volume changes from baseline: Median [2] [mm^3]	Tumor volume changes from baseline: Median [3] [mm^3]	Tumor volume changes from baseline: Median [4] [mm^3]	Tumor volume changes from baseline: Median [5] [mm^3]	Body weight loss [6]	Tolerability [6]	Anti-tumor effect on tumor growth (statistical significance versus control) [6]	Regressions Complete [7]	Regressions Partial [7]	ΔT/ΔC in % at day 22 [8] [%]	Median % of regressions on day 22 [7] [%]	Biological Interpretation	Unscheduled death (Day of death) [7]	Tumor volume changes from baseline: Median (Day 18, amcenestrant 20 mg/kg BID, ribociclib 100 mg/kg QD) [mm^3]
CN(C)C(=O)c1cc2cnc(Nc3ccc(N4CCNCC4)cn3)nc2n1C1CCCC1.O=C(O)CCC(=O)O [ribociclib, 7-cyclopentyl-N,N-dimethyl-2-[[5-(1-piperazinyl)-2-pyridinyl]amino]-7H-pyrrolo[2,3-d]pyrimidine-6-carboxamide]	44.0	103.0	183.0	292.0	423.0	no significant body weight loss	well-tolerated	no statistically significant anti-tumor efficacy	0/7	0/7	40	0	Inactive*	0/7	–
O=C(O)c1ccc2c(c1)CCCC(c1ccc(Cl)cc1Cl)=C2c1ccc(O[C@H]2CCN(CCCF)C2)cc1 [SAR439859, 6-(2,4-dichlorophenyl)-5-[4-[(3S)-1-(3-fluoropropyl)pyrrolidin-3-yl]oxyphenyl]-8,9-dihydro-7H-benzo[7]annulene-2-carboxylic acid]	43.0	121.0	214.0	360.0	501.0	–	–	no statistically significant anti-tumor effect	0/7	0/7	47	0	Inactive*	0/7	392.0
